IC50 data for five compounds are collected here from BindingDB's records for patent US20240368161 (Cgenetech (Suzhou, China), 2024).

The IC50 is the point on the concentration scale where inhibition reaches its midpoint.

The target in assay [1] is T1, Tyrosine-protein kinase JAK3 (Homo sapiens, UniProt P52333).
T1 sequence (P52333 whole entry): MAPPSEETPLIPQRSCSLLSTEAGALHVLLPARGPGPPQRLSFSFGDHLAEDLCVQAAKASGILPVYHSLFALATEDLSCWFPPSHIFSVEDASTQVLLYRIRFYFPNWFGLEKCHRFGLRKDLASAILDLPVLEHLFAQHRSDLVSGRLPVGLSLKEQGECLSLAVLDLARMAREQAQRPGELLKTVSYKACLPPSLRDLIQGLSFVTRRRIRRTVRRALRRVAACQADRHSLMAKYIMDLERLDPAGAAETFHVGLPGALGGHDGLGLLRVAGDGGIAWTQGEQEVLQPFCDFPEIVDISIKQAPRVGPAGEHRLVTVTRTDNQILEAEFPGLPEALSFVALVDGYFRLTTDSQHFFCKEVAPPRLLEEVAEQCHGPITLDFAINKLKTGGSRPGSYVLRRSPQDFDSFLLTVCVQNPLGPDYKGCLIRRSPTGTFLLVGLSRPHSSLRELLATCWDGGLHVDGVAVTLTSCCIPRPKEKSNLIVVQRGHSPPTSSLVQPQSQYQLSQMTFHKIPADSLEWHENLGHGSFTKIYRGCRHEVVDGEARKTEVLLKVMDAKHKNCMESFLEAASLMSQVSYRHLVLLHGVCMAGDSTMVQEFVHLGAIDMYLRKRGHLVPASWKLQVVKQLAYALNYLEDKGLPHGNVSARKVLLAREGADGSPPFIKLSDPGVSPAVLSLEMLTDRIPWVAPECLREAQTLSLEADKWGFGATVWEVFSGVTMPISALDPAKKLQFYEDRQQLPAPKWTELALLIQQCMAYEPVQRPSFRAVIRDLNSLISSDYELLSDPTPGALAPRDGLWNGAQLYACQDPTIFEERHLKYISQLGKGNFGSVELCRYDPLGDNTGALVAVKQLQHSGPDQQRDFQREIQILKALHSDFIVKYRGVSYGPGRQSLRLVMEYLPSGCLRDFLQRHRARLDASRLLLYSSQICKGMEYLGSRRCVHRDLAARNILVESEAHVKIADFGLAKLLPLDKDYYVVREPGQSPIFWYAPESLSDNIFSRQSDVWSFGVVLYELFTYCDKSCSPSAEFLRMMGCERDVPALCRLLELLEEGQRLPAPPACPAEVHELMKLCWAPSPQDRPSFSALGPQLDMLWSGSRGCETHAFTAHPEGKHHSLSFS
Kind of assay: JAK3 Kinase Inhibitory Activity Determination.
Protocol: At the end of incubation, HTRF665/620 signals were read on a multifunctional microplate reader.

The target of assay [2] is Tyrosine-protein kinase JAK1 (Homo sapiens, UniProt P23458). Put plainly: JAK1 Kinase Inhibitory Activity Determination.
Tyrosine-protein kinase JAK1, sequence (P23458 whole entry): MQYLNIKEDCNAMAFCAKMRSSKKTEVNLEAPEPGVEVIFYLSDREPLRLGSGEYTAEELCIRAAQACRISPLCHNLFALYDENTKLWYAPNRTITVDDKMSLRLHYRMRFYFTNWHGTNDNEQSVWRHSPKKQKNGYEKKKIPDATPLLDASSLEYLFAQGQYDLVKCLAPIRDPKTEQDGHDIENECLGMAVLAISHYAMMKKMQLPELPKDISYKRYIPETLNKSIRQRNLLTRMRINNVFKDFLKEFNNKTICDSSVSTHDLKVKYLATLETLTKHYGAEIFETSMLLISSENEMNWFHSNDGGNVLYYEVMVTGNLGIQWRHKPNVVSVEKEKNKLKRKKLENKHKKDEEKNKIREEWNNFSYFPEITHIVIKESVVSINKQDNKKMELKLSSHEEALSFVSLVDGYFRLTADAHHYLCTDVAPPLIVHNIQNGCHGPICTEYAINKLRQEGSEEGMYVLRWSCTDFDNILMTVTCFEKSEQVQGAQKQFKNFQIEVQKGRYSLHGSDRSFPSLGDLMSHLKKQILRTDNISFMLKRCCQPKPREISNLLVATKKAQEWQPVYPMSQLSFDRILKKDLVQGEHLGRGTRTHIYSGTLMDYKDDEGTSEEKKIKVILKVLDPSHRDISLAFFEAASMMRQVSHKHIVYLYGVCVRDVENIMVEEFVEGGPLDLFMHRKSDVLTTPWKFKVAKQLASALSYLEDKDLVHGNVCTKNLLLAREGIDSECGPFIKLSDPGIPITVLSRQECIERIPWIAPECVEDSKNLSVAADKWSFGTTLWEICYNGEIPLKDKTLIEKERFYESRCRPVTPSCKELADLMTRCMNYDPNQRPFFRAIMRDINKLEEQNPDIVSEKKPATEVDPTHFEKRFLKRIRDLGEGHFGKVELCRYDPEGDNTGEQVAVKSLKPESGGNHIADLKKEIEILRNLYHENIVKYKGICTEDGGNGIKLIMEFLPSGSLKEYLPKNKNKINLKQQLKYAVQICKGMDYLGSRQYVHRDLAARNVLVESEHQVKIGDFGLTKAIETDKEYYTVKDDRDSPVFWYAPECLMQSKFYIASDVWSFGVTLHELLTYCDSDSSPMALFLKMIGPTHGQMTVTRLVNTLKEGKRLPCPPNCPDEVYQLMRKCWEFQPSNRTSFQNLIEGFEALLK
The target in assay [3] is Tyrosine-protein kinase JAK2 (Homo sapiens, UniProt O60674). Kind of assay: JAK2 Kinase Inhibitory Activity Determination.
Tyrosine-protein kinase JAK2, sequence (O60674 whole entry): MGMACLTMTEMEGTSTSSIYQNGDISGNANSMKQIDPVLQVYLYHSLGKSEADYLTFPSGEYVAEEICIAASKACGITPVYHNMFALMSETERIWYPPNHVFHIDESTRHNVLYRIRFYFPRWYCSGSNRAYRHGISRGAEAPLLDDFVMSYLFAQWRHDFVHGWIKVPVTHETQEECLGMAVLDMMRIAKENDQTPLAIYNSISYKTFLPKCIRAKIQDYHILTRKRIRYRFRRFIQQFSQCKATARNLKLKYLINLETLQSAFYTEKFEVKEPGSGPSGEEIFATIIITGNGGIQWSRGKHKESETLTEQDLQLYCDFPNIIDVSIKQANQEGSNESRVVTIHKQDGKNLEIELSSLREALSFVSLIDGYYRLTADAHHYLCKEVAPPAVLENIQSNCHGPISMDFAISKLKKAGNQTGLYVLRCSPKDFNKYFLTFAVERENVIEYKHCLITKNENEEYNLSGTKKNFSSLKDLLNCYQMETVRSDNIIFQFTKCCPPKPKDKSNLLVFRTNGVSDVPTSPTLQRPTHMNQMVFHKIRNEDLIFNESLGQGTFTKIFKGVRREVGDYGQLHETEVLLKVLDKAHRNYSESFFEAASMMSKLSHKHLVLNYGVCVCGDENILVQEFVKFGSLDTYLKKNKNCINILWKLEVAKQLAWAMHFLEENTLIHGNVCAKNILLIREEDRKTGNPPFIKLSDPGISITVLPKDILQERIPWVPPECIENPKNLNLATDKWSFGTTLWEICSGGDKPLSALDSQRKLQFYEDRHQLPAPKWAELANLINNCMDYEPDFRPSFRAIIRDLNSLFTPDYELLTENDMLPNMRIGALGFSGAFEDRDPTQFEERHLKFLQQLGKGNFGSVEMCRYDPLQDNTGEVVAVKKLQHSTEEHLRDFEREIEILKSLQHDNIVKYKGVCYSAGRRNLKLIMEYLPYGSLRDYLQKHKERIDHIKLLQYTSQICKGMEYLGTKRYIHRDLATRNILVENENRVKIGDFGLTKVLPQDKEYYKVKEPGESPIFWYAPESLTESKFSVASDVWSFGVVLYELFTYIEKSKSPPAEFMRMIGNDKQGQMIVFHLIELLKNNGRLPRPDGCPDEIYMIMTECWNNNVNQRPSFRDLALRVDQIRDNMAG

`CS(=O)(=O)C1CN(Cc2ccc(-c3cccc4nc(NC(=O)C5CC5)cn34)cc2)C1` [US20240368161, Compound 15]: the 50% inhibitory concentration (IC50) was 3.17 µM in assay [1], 0.137 µM in assay [2] and 0.232 µM in assay [3].

For `CS(=O)(=O)C1CCN(Cc2ccc(-c3cccc4nc(NC(=O)C5CC5)cn34)cc2)CC1` [US20240368161, Compound 16], the IC50 is 3.12 µM in assay [1], 0.0744 µM in assay [2] and 0.127 µM in assay [3].

`CCCS(=O)(=O)C1CCN(Cc2ccc(-c3cccc4nc(NC(=O)C5CC5)cn34)cc2)CC1` [US20240368161, Compound 31]: the half-maximal inhibitory concentration (IC50) in assay [1] was determined as 6.9 µM; in assay [2], 0.611 µM; in assay [3], 0.229 µM.

On to `CS(=O)(=O)C1CCN(Cc2ccc(-c3cccc4nc(NC(=O)C5CC5)cn34)c(F)c2)CC1` [US20240368161, Compound 20], for which the IC50 in assay [1] was found to be 5.76 µM; in assay [2], 0.262 µM; in assay [3] it was 0.176 µM.

For the compound `O=C(Nc1cn2c(-c3ccc(OC4CCS(=O)(=O)CC4)cc3)cccc2n1)C1CC1` [US20240368161, Compound 17], the IC50 in assay [1] amounted to 1.46 µM; in assay [2], 0.125 µM; in assay [3], 0.0727 µM.
